Reference: the supplement of paper PMC8671470
± gives the standard deviation of the averaged measurements.

Test system: HL-60
Assay: cell viability (% survival relative to DMSO control); higher = less cytotoxic
Conditions: 72 h
How it was run: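 In 384-well plates, the full library was rescreened in duplicate on HL-60 cells in RPMI 1640 with 10% FBS, at 1–10,000 nM in five tenfold concentrations, for 72 h at 37 °C, 5% CO2. Each run also held DMSO or 100 nM of one of three metabolic inhibitors. Viability was measured by CellTiter-Glo and normalised to DMSO wells and to wells with proteasome inhibitor, present at 10 μM. Any area under the curve comes from four-parameter log-logistic fitting with drc and PharmacoGx.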

[1] = 0.001 µM, co-treatment: AZD3965 100 nM
[2] = 0.001 µM, co-treatment: DMSO vehicle
[3] = 0.001 µM, co-treatment: GSK2194069 100 nM
[4] = 0.001 µM, co-treatment: pictilisib 100 nM
[5] = 0.01 µM, co-treatment: AZD3965 100 nM
[6] = 0.01 µM, co-treatment: DMSO vehicle
[7] = 0.01 µM, co-treatment: GSK2194069 100 nM
[8] = 0.01 µM, co-treatment: pictilisib 100 nM
[9] = 0.1 µM, co-treatment: AZD3965 100 nM
[10] = 0.1 µM, co-treatment: DMSO vehicle
[11] = 0.1 µM, co-treatment: GSK2194069 100 nM
[12] = 0.1 µM, co-treatment: pictilisib 100 nM
[13] = 1 µM, co-treatment: AZD3965 100 nM
[14] = 1 µM, co-treatment: DMSO vehicle
[15] = 1 µM, co-treatment: GSK2194069 100 nM
[16] = 1 µM, co-treatment: pictilisib 100 nM
[17] = 10 µM, co-treatment: AZD3965 100 nM
[18] = 10 µM, co-treatment: DMSO vehicle
[19] = 10 µM, co-treatment: GSK2194069 100 nM
[20] = 10 µM, co-treatment: pictilisib 100 nM

Row | SMILES | cell viability [1] [%] | cell viability [2] [%] | cell viability [3] [%] | cell viability [4] [%] | cell viability [5] [%] | cell viability [6] [%] | cell viability [7] [%] | cell viability [8] [%] | cell viability [9] [%] | cell viability [10] [%] | cell viability [11] [%] | cell viability [12] [%] | cell viability [13] [%] | cell viability [14] [%] | cell viability [15] [%] | cell viability [16] [%] | cell viability [17] [%] | cell viability [18] [%] | cell viability [19] [%] | cell viability [20] [%]
1 | CC(Cc1ccc(O)c(O)c1)C(C)Cc1ccc(O)c(O)c1 (stereo not given) [Masoprocol] | 103 ± 4.1 | 101.9 ± 0.67 | 102 ± 9.7 | 102 ± 5.4 | 100 ± 7.9 | 98.1 ± 2.7 | 100.9 ± 0.44 | 89.6 ± 7.2 | 98.5 ± 1.4 | 96.29 ± 0.34 | 98.6 ± 2.7 | 94 ± 5.3 | 92.8 ± 4.1 | 99.3 ± 1.9 | 96.6 ± 4.1 | 86.4 ± 1.2 | 10.8 ± 0.34 | 12.9 ± 3.7 | 21.8 ± 0.43 | 4.58 ± 1
2 | O=P(O)(O)C(O)(Cn1ccnc1)P(=O)(O)O [Zoledronic acid] | 102 ± 2.9 | 98.3 ± 11 | 91.7 ± 49 | 81.3 ± 24 | 101 ± 2.4 | 99.8 ± 2.5 | 92.3 ± 6.2 | 98.9 ± 1.2 | 102 ± 2.3 | 101 ± 1.7 | 95.8 ± 4.7 | 100 ± 9.7 | 101 ± 2.5 | 105.3 ± 0.2 | 103 ± 14 | 108 ± 12 | 98 ± 3.6 | 101 ± 5.2 | 80 ± 26 | 98 ± 7.6
3 | Cc1ccc(S(=O)(=O)NC2c3ccccc3Oc3ccccc32)cc1 [AH-7614] | 100 ± 1.6 | 100 ± 0.64 | 104 ± 2.2 | 104.2 ± 0.15 | 99.6 ± 0.97 | 100.5 ± 0.4 | 101 ± 2.9 | 90.6 ± 8.2 | 102 ± 4.4 | 100.4 ± 0.53 | 96.8 ± 5.2 | 96.6 ± 2.9 | 97.3 ± 4.8 | 102.5 ± 0.72 | 95.1 ± 9.7 | 92.2 ± 15 | 95.8 ± 1.2 | 96.04 ± 0.12 | 97.2 ± 3.4 | 96.4 ± 7
4 | NC(=O)c1ncn([C@@H]2O[C@H](CO)[C@@H](O)[C@H]2O)n1 [Ribavirin] | 100 ± 3.5 | 100.3 ± 0.67 | 92.1 ± 6.2 | 105 ± 7.1 | 100 ± 4.4 | 102 ± 1.6 | 76.6 ± 27 | 106 ± 5 | 99.2 ± 3.9 | 102 ± 3 | 94.1 ± 5.5 | 101 ± 3 | 99.8 ± 4.1 | 97.1 ± 3.6 | 90.1 ± 14 | 107 ± 3.6 | 106 ± 2.2 | 104 ± 4.4 | 90.4 ± 12 | 104 ± 3.7
5 | C[C@]12CC[C@H](O)CC1=CC[C@@H]1[C@@H]2CC[C@]2(C)C(c3cccnc3)=CC[C@@H]12 [Abiraterone] | 109 ± 10 | 97.8 ± 1.5 | 106.3 ± 0.78 | 104 ± 14 | 103 ± 1.9 | 98 ± 2.3 | 96.1 ± 4.2 | 102 ± 8 | 93.4 ± 14 | 93.1 ± 11 | 86.9 ± 16 | 84.9 ± 22 | 100.2 ± 0.73 | 97.9 ± 1.7 | 107 ± 11 | 99.5 ± 8.8 | 103 ± 5.8 | 105 ± 5.8 | 105 ± 8.8 | 108 ± 1.3
6 | C[C@H]1O[C@@H](O[C@H]2[C@@H](O)C[C@H](O[C@H]3[C@@H](O)C[C@H](O[C@H]4CC[C@@]5(C)[C@H](CC[C@@H]6[C@@H]5C[C@@H](O)[C@]5(C)[C@@H](C7=CC(=O)OC7)CC[C@]65O)C4)O[C@@H]3C)O[C@@H]2C)C[C@H](O)[C@@H]1O [Digoxin] | 75.4 ± 20 | 96.3 ± 4.9 | 84.4 ± 2.7 | 90.5 ± 2.1 | 100.2 ± 0.99 | 102.5 ± 0.88 | 79.1 ± 12 | 89.6 ± 7.5 | 59.9 ± 4.1 | 59.4 ± 21 | 67.8 ± 22 | 51.4 ± 16 | -2.24 ± 0.7 | 0.303 ± 2.7 | -2.57 ± 0.89 | -2.59 ± 1.1 | -0.643 ± 0.45 | -1.62 ± 0.34 | -1.79 ± 0.52 | -1.33 ± 0.87
